“Also recorded” adds a separate entry of the source. Like-named read-outs stand apart in the source and are kept apart here.
Tests used:
human ABCB4 [1] = biological target: T1, human ABCB4 (Homo sapiens, UniProt P21439); assay: Inhibition of ABCB4-mediated digoxin transport, bidirectional assay in Abcb1KO-MDCKII-ABCB4 cells; type: cell-based
T1 construct: expressed in transfected cells; host or cells: Abcb1KO-MDCKII (canine kidney, Abcb1 knockout), lentiviral transduction, single clone

ABCB4 [2] = details: read-out: In Vitro Literature Data (IC50), cited from earlier work
[3] = ref FDA Liver Toxicity Knowledge Base (LTKB); cited from earlier work
ABCB1 = ABCB1 (Homo sapiens, UniProt P08183); details: Y/N; cited from earlier work
human ABCB4 [4] = biological target: T1, human ABCB4; assay: Bidirectional transport (efflux ratio) in Abcb1KO-MDCKII-ABCB4 cells, substrate test; type: in vitro ADME; details: for ABCB4 substrate status, in words: bidirectional transport, ER cut-off 2
canine Abcb1 [5] = biological target: T2, canine Abcb1 (Canis lupus familiaris, UniProt C0KKU9); assay: in vitro; details: dog, MDCK, pH 7.4
ABCB4 [6] = details: cited from earlier work; for In Vitro Literature Data, inhibitor (IC50 value was not determined): digoxin transport in ABCB4-transfected LLC-PK1 cells
ABCB4 [7] = details: cited from earlier work; for IC50: read-out: In Vitro Literature Data (IC50)
canine Abcb1 [8] = biological target: T2, canine Abcb1; parameters: To confirm the impact of endogenous canine Abcb1 on the efflux ratio (ER); host or cells: MDCKII parental (wildtype) cells; method as in PMID 31266750; details: previous study; cited from earlier work
[9] = digoxin 1 µM probe, ABCB4 cell monolayers, samples at 3 h, read-out: IC50 (µM), Based on Digoxin ER
[10] = primary hepatocyte assay, labeled PC

T1 sequence (P21439 1-1279 isoform P21439-2): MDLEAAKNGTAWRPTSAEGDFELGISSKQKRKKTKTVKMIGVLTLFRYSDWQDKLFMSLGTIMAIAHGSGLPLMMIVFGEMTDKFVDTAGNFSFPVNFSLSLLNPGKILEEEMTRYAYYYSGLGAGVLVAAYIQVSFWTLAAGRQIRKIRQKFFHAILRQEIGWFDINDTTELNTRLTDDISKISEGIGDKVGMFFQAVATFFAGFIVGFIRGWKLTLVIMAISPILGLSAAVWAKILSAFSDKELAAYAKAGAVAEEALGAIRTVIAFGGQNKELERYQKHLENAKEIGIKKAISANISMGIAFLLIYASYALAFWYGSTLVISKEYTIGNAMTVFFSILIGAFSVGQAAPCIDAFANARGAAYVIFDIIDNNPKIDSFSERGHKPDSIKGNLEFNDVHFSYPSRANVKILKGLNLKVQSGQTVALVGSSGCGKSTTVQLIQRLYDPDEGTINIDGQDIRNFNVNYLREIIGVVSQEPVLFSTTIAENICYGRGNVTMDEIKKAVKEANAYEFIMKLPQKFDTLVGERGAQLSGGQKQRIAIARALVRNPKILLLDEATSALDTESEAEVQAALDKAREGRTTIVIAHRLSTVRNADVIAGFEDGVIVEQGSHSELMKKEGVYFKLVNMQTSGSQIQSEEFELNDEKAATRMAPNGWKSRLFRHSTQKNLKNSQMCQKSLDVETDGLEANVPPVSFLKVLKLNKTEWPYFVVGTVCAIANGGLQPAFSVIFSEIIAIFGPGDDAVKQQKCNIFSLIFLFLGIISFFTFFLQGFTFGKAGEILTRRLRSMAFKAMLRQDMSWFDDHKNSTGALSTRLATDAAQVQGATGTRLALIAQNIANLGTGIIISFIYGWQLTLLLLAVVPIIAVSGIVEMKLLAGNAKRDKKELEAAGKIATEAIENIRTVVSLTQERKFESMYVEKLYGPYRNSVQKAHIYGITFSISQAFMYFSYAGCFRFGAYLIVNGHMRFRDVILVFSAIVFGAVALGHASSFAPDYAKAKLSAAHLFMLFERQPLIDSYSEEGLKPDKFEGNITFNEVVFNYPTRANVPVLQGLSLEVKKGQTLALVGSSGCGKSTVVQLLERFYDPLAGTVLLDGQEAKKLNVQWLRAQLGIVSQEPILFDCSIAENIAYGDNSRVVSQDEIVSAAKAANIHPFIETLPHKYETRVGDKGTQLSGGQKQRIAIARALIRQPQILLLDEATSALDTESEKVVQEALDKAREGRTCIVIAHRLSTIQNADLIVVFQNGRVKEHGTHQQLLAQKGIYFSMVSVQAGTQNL
T2 sequence (C0KKU9 1-1281): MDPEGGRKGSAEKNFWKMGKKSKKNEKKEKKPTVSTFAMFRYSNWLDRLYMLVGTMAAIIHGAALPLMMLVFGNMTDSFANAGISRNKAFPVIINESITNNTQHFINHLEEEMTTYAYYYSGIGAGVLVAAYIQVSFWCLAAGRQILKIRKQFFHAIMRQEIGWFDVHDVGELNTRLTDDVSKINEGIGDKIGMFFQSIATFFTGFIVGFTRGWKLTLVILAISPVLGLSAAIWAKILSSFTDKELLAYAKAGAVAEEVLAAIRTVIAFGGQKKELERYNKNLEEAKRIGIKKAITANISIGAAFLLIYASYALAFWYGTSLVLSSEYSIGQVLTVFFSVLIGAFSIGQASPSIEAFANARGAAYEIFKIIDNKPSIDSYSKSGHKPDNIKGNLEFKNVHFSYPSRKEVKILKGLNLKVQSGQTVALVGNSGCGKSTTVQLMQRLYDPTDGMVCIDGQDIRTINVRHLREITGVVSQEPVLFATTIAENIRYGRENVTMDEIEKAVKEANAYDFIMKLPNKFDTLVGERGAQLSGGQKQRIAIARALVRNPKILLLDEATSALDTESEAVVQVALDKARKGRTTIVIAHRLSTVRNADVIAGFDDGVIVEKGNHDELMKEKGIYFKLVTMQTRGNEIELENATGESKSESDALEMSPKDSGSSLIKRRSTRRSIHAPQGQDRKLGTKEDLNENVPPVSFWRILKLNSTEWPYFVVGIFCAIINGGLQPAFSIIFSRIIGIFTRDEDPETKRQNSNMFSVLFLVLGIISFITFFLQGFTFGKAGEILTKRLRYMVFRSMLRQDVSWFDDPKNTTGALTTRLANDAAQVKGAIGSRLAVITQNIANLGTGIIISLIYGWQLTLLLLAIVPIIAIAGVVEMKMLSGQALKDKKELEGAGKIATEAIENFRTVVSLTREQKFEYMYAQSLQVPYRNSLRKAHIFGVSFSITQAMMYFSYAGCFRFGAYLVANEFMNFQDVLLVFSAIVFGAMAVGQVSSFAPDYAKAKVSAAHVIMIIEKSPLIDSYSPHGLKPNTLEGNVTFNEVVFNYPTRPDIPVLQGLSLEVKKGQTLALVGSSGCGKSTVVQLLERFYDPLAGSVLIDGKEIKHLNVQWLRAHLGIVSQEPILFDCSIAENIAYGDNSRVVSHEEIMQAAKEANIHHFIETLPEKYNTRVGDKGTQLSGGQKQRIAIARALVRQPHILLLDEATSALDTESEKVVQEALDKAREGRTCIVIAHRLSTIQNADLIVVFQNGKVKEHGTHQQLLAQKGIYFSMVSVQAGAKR
ABCB1, sequence (P08183 whole entry): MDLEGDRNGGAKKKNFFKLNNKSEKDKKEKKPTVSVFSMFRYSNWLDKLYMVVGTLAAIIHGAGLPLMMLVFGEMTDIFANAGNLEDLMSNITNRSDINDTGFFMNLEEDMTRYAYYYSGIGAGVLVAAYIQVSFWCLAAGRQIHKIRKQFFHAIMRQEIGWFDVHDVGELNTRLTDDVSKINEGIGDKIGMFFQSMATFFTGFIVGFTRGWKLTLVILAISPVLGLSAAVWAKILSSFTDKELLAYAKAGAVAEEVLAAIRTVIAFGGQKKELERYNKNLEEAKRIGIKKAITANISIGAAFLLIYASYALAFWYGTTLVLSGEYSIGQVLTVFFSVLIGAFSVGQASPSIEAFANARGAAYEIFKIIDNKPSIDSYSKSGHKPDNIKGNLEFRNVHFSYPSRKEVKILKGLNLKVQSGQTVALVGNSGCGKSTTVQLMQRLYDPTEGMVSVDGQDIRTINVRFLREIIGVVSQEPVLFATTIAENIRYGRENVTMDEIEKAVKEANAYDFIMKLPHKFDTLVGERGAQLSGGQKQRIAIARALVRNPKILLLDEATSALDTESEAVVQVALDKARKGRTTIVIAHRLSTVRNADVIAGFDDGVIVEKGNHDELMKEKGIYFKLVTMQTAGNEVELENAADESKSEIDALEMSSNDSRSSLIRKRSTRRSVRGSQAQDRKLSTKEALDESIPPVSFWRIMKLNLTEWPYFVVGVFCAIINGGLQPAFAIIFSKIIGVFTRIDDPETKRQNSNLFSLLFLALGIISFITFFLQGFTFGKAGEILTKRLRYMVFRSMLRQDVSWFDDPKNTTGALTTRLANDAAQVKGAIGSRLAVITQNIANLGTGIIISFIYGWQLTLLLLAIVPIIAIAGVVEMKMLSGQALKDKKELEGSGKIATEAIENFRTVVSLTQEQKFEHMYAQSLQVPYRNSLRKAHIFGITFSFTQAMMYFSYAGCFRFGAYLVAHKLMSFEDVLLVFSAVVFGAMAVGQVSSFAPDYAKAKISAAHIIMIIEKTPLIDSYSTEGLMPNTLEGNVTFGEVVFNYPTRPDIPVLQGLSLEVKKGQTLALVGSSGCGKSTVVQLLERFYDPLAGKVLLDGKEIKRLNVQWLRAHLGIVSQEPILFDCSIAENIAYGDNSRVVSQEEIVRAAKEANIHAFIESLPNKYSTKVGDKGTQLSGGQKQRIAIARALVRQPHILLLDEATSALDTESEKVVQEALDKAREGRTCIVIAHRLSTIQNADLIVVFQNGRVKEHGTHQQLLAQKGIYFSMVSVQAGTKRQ

Compound | Effect on ABCB4-mediated digoxin transport, in words (human ABCB4 [1]; digoxin 1 µM probe) | IC50 (human ABCB4 [1]; [9]) [µM] | DILI Concern [3] | other results
CCOC(=O)C1=C(COCCN)NC(C)=C(C(=O)OC)C1c1ccccc1Cl (stereo not drawn) [amlodipine] | weak interaction | 17.9 |  | 
CCc1oc2ccccc2c1C(=O)c1cc(Br)c(O)c(Br)c1 [benzbromarone] |  |  | Most DILI concern | IC50 (human ABCB4 [1]): 19.9 µM; IC50 (ABCB4 [2]; human primary hepatocyte assay): 0.4 µM
CC[C@H]1OC(=O)[C@H](C)[C@@H](O[C@H]2C[C@@](C)(OC)[C@@H](O)[C@H](C)O2)[C@H](C)[C@@H](O[C@@H]2O[C@H](C)C[C@H](N(C)C)[C@H]2O)[C@](C)(OC)C[C@@H](C)C(=O)[C@H](C)[C@@H](O)[C@]1(C)O [clarithromycin] |  | > 80 | Most DILI concern | 
CC(C)CN(C[C@@H](O)[C@H](Cc1ccccc1)NC(=O)O[C@H]1CO[C@H]2OCC[C@H]21)S(=O)(=O)c1ccc(N)cc1 [darunavir] | ABCB4 inhibitors | > 10 |  | inhibition at 10 µM (human ABCB4 [1]; read-out: % inhibition of ABCB4-mediated digoxin transport at 10 µM, 10 µM test drug, digoxin 1 µM): 60%
C[C@H]1O[C@@H](O[C@H]2[C@@H](O)C[C@H](O[C@H]3[C@@H](O)C[C@H](O[C@H]4CC[C@@]5(C)[C@H](CC[C@@H]6[C@@H]5C[C@@H](O)[C@]5(C)[C@@H](C7=CC(=O)OC7)CC[C@]65O)C4)O[C@@H]3C)O[C@@H]2C)C[C@H](O)[C@@H]1O [digoxin] |  |  |  | ABCB4 substrate status, in words (human ABCB4 [4]): shared substrate for ABCB1 and ABCB4; efflux ratio at 1 µM (canine Abcb1 [5]): 4.74 ± 0.15
COc1ccc([C@@H]2Sc3ccccc3N(CCN(C)C)C(=O)[C@@H]2OC(C)=O)cc1 [diltiazem] |  | 48.6 |  | 
COc1cc2c(cc1OC)CN(CCc1ccc(NC(=O)c3cccc4c(=O)c5cccc(OC)c5[nH]c34)cc1)CC2 [elacridar] | strong concentration-dependent inhibitory effect | 0.15 |  | 
CCOC(=O)C1=C(C)NC(C)=C(C(=O)OC)C1c1cccc(Cl)c1Cl (stereo not drawn) [felodipine] | no interaction | > 30 |  | 
OC(Cn1cncn1)(Cn1cncn1)c1ccc(F)cc1F [fluconazole] |  |  | Most DILI concern | IC50 (human ABCB4 [1]): > 3 µM; IC50 (ABCB4 [2]; human primary hepatocyte assay): > 300 µM
CC[C@H](Nc1ncnc2[nH]cnc12)c1nc2cccc(F)c2c(=O)n1-c1ccccc1 [idelalisib] | did not inhibit ABCB4 | > 5 |  | 
CCC(C)n1ncn(-c2ccc(N3CCN(c4ccc(OCC5COC(Cn6cncn6)(c6ccc(Cl)cc6Cl)O5)cc4)CC3)cc2)c1=O (stereo not drawn) [itraconazole] |  | 0.17 | Most DILI concern | Effect on ABCB4-mediated transport of gefitinib (human ABCB4 [4]; itraconazole 2 µM, gefitinib 0.5 µM): inhibited; IC50 (ABCB4 [2]; [10]): 2.1 µM; In Vitro Literature Data, % inhibition at 10 µM (ABCB4 [6]; 10 µM, LLC-PK1-ABCB4 cells): 30%; In Vitro Literature Data, % inhibition at 1 µM (ABCB4 [7]; 1 µM): 50%; IC50 (ABCB4 [7]): 22.5 µM
CC(=O)N1CCN(c2ccc(OCC3COC(Cn4ccnc4)(c4ccc(Cl)cc4Cl)O3)cc2)CC1 (stereo not drawn) [ketoconazole] |  |  | Most DILI concern | IC50 (human ABCB4 [1]): 0.56 µM; IC50 (ABCB4 [7]): 4.6 µM
Cc1cccc(C)c1OCC(=O)N[C@@H](Cc1ccccc1)[C@@H](O)C[C@H](Cc1ccccc1)NC(=O)[C@H](C(C)C)N1CCCNC1=O [lopinavir] | ABCB4 inhibitors | 0.6 |  | 
CN(Cc1cnc2nc(N)nc(N)c2n1)c1ccc(C(=O)N[C@@H](CCC(=O)O)C(=O)O)cc1 [methotrexate] | did not detect interaction; also recorded: did not show inhibition | > 10 | Most DILI concern | IC50 (ABCB4 [2]; human primary hepatocyte assay): 3.1 µM
COCC(=O)O[C@]1(CCN(C)CCCc2nc3ccccc3[nH]2)CCc2cc(F)ccc2[C@@H]1C(C)C [mibefradil] | strong concentration-dependent inhibitory effect | 0.4 |  | 
Nc1cc(N2CCCCC2)nc(N)[n+]1[O-] [minoxidil] | no effect | > 20 |  | IC50 (ABCB4 [2]; human primary hepatocyte assay): > 300 µM
COc1ccnc(C[S+]([O-])c2nc3ccc(OC(F)F)cc3[nH]2)c1OC (stereo not drawn) [pantoprazole] | no interaction | > 10 | Less DILI concern | 
C=C[C@H]1C[N@@]2CC[C@H]1C[C@@H]2[C@@H](O)c1ccnc2ccc(OC)cc12 [quinidine] |  | 1.09 |  | efflux ratio at 1 µM (human ABCB4 [4]; human, pH 7.4, 1 µM, ABCB4 cells, read-out: Efflux ratio (ER)): < 2
CC(C)c1nc(CN(C)C(=O)N[C@H](C(=O)N[C@@H](Cc2ccccc2)C[C@H](O)[C@H](Cc2ccccc2)NC(=O)OCc2cncs2)C(C)C)cs1 [ritonavir] |  |  | Most DILI concern | IC50 (ABCB4 [2]; human primary hepatocyte assay): […]; IC50 (ABCB4 [2]; [10]): […]
CNC(=O)c1cc(Oc2ccc(NC(=O)Nc3ccc(Cl)c(C(F)(F)F)c3)cc2)ccn1 [sorafenib] |  | 4.42 | Most DILI concern | 
C/C=C/C[C@@H](C)C(=O)[C@H]1C(=O)N[C@@H](C(C)C)C(=O)N(C)CC(=O)N(C)[C@@H](CC(C)C)C(=O)N[C@@H](C(C)C)C(=O)N(C)[C@@H](CC(C)C)C(=O)N[C@@H](C)C(=O)N[C@H](C)C(=O)N(C)[C@@H](CC(C)C)C(=O)N(C)[C@@H](CC(C)C)C(=O)N(C)[C@@H](C(C)C)C(=O)N1C [valspodar] | potent ABCB4 inhibitor |  |  | IC50 (human ABCB4 [1]): 0.15 µM; In Vitro Literature Data, inhibitor (IC50 value was not determined) (ABCB4 [6]): Inhibitor ^d [16]
COc1ccc(CCN(C)CCCC(C#N)(c2ccc(OC)c(OC)c2)C(C)C)cc1OC (stereo not drawn) [verapamil] |  |  |  | In Vitro Literature Data, inhibitor (IC50 value was not determined) (ABCB4 [6]): inhibitor
O[C@@H](COc1cccc2ncccc12)CN1CCN([C@@H]2c3ccccc3[C@@H]3[C@H](c4ccccc42)C3(F)F)CC1 [zosuquidar] | strong concentration-dependent inhibitory effect | 0.07 |  | 
ivermectin | ABCB4 inhibitor | 0.53 | Less DILI concern | In Vitro Literature Data, substrate (ABCB4 [6]; LLC-PK1-ABCB4 cells): Substrate [16]
maraviroc |  |  |  | Affinity for endogenous canine Abcb1 in MDCKII cell lines, in words (canine Abcb1 [8]): strong affinity

Further lines, with some results ahead:

Effect on ABCB4-mediated digoxin transport, in words (human ABCB4 [1]; digoxin 1 µM probe) | IC50 (human ABCB4 [1]; [9]) [µM] | Compound | DILI Concern [3] | other results
no effect | > 100 | CC(=O)Oc1ccccc1C(=O)O [acetylsalicylic acid] | No DILI concern | IC50 (ABCB4 [2]; human primary hepatocyte assay): > 300 µM
 | > 10 | CCCCc1oc2ccccc2c1C(=O)c1cc(I)c(OCCN(CC)CC)c(I)c1 [amiodarone] |  | 
ABCB4 inhibitors |  | C=C[C@@H]1C[C@]1(NC(=O)[C@@H]1C[C@@H](Oc2ncc(OC)c3ccc(Cl)cc23)CN1C(=O)[C@@H](NC(=O)OC(C)(C)C)C(C)(C)C)C(=O)NS(=O)(=O)C1CC1 [asunaprevir] |  | 
 | > 80 | NC(=O)N1c2ccccc2C=Cc2ccccc21 [carbamazepine] | Most DILI concern | IC50 (ABCB4 [2]; human primary hepatocyte assay): > 300 µM; ABCB1 Interactor (ABCB1): Conflicting information [50]
 | 0.7 | COc1ccccc1OCCNCC(O)COc1cccc2[nH]c3ccccc3c12 (stereo not drawn) [carvedilol] | Less DILI concern | 
 | > 5 | C#Cc1cccc(Nc2ncnc3cc(OCCOC)c(OCCOC)cc23)c1 [erlotinib] | Most DILI concern | 
no interaction | > 20 | CC(C)OC(=O)C(C)(C)Oc1ccc(C(=O)c2ccc(Cl)cc2)cc1 [fenofibrate] |  | 
 | 16.1 | COc1cc2nc(N3CCN(C(=O)c4ccco4)CC3)nc(N)c2cc1OC [prazosin] |  | ABCB4 substrate status, in words (human ABCB4 [4]): minor ABCB4-mediated directional transport
 | 1.4 | CC(C)(C)NC(=O)[C@@H]1C[C@@H]2CCCC[C@@H]2CN1C[C@@H](O)[C@H](Cc1ccccc1)NC(=O)[C@H](CC(N)=O)NC(=O)c1ccc2ccccc2n1 [saquinavir] | Less DILI concern | 

Reference: PMC10003010, “A Unique In Vitro Assay to Investigate ABCB4 Transport Function” (International Journal of Molecular Sciences, 2023)
